Experiment: [3H]-Epibatidine Radioligand Binding Assay: Briefly, cultured cells at >80% confluence were removed from their flasks (80 cm^2) with a disposable cell scraper and placed in 10 mL of 50 mM Tris.HCl buffer (pH 7.4, 4 °C.). The cell suspension was centrifuged at 10,000×g for 5 min and the pellet was collected. The cell pellet was then homogenized in 10 mL buffer with a polytron homogenizer and centrifuged at 36,000 g for 10 min at 4 °C. The membrane pellet was resuspended in fresh buffer, and aliquots of the membrane preparation were used for binding assays. The concentration of [3H]-epibatidine used was ~500 pM for competition binding assays. […] Bound and free ligands were separated by vacuum filtration through Whatman GF/C filters treated with 0.5% polyethylenimine. The filter-retained radioactivity was measured by liquid scintillation counting. Specific binding was defined as the difference between total binding and nonspecific binding. Data from competition binding assays were analyzed using Prism 5 (GraphPad Software, San Diego, Calif.).

Question: With `CCCCC#Cc1cnc(C(F)(F)F)c(OC[C@@H]2CCN2)c1` as the compound, how does the Ki read?
Answer: > 100 µM
